{"source": "patent US10590422B2", "about": "“Anticancer therapeutic intervention” (PHYZAT BIOPHARMACEUTICALS, LDA., priority 2017, dated 2020)", "tested_on": "ASCT2", "test": "ASCT2 activity: [^14C]-L-alanine uptake in fibrosarcoma HT-1080 cells after ASCT2 gene silencing", "type": "cell-based, human", "conditions": "at 48 h", "experimental": "Cells were plated in 24-well plates (Sarstedt, Germany) and grown until confluence was reached. On the day of the experiment, Cell culture medium was aspirated and cells were preincubated for 15 min in Hanks' medium (ChCl 140 mM, KCl 5 mM, MgSO4.7H2O 0.8 mM, K2HPO4 0.33 mM, KH2PO4 0.44 mM, MgCl2.6H2O 1 mM, CaCl2) 0.025 mM, Tris-HCl 9.75 mM, pH 7.4). Uptake was initiated by the addition of Hanks' medium with 0.25 μM [^14C]-L-alanine in the absence and in the presence of 3 mM unlabeled L-alanin. During preincubation and incubation cells were continuously shaken and maintained at 37° C. Uptake was terminated after 1 min by rapid removal of uptake solution by means of a vacuum pump connected to a Pasteur pipette, followed by a rapid wash with Hanks' medium. Subsequently, cells were solubilized in 0.1% vol/vol Triton X-100 (dissolved in 5 mM Tris-HCl, pH 7.4), and radioactivity was measured by liquid scintillation counting.\nCells were plated in 24-well (Sarstedt, Germany) or 6-well plates (Sarstedt, Germany) or 96-well plates with black walls clear bottom (BD Biosciences, USA) and incubated 24 h under normal growth conditions. siRNAs against ASCT2 and transfection agent were diluted at desired concentrations and mixed according to transfection agent manufacturer's instructions. The mixture was incubated 20 min at RT for siRNA-complex formation, after which it was added to the cells and incubated at 37° C., 5% CO2. After the incubation period, serum and antibiotic was restored and cells were further incubated at normal conditions for the desired time points until evaluation of ASCT2 activity or ASCT2 expression (immunoblotting and RT-qPCR).", "data": [{"substance": "278/403/404 (sense UGCCACGGUCGCCUCUGAGAATT; antisense UUCUCAGAGGCGACCGUGGCATT; siRNA; sugars by position and backbone not given here; further chemistry not fully specified)", "values": [{"measurement": "Effect on [^14C]-L-alanine uptake compared with SEQ ID NO: 267/397/398", "setting": "HT-1080 cells, 5 nM, p<0.05", "value": "significantly greater"}, {"measurement": "[^14C]-L-alanine (0.25 μM) uptake at initial rate of uptake (1 min)", "setting": "fibrosarcoma HT-1080 cells, 5 nM siRNA, treatment 6 h, 0.4% Lipofectamine 2000, FIG. 8B", "value": "decreased"}]}]}
